Source: the supplement of paper PMC11061612

Legend:
Olaparib = compound: O=C(c1cc(Cc2n[nH]c(=O)c3ccccc23)ccc1F)N1CCN(C(=O)C2CC2)CC1 [Olaparib]; conditions: max 10 µM
Procedure, shortened: (§1)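 Cancer cell lines were dosed for 72 hours (final DMSO typically 0.2%) after 24 hours at 37°C and 5% CO2 in 1536-well plates containing 7.5 μl DMEM/F12 or RPMI with 10% FBS. Viability came from CellTiter-Glo 2.0 luminescence, scaled between blank-well and DMSO-well means, and dose responses were fitted to a two-parameter logistic curve with a non-linear mixed effects model. The single-agent IC50 was obtained from this fit.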

Crizotinib = compound: C[C@@H](Oc1cc(-c2cnn(C3CCNCC3)c2)cnc1N)c1c(Cl)ccc(F)c1Cl [Crizotinib]; conditions: max 10 µM
Procedure, shortened: as §1

Prexasertib = compound: COc1cccc(OCCCN)c1-c1cc(Nc2cnc(C#N)cn2)n[nH]1 [Prexasertib]; conditions: max 1 µM
Procedure, shortened: as §1

Doxorubicin = compound: COc1cccc2c1C(=O)c1c(O)c3c(c(O)c1C2=O)C[C@@](O)(C(=O)CO)C[C@@H]3O[C@H]1C[C@H](N)[C@H](O)[C@H](C)O1 [Doxorubicin]; conditions: max 1 µM
Procedure, shortened: as §1

Alisertib = compound: COc1cc(Nc2ncc3c(n2)-c2ccc(Cl)cc2C(c2c(F)cccc2OC)=NC3)ccc1C(=O)O [Alisertib]; conditions: max 10 µM
Procedure, shortened: as §1

SN-38 = compound: CCc1c2c(nc3ccc(O)cc13)-c1cc3c(c(=O)n1C2)COC(=O)[C@]3(O)CC [SN-38]; conditions: max 0.3 µM
Procedure, shortened: as §1

Trametinib = compound: CC(=O)Nc1cccc(-n2c(=O)n(C3CC3)c(=O)c3c(Nc4ccc(I)cc4F)n(C)c(=O)c(C)c32)c1 [Trametinib]; conditions: max 1 µM
Procedure, shortened: as §1

AZD8186 = compound: C[C@@H](Nc1cc(F)cc(F)c1)c1cc(C(=O)N(C)C)cc2c(=O)cc(N3CCOCC3)oc12 [AZD8186]; conditions: max 10 µM
Procedure, shortened: as §1

AZD1775 = compound: C=CCn1c(=O)c2cnc(Nc3ccc(N4CCN(C)CC4)cc3)nc2n1-c1cccc(C(C)(C)O)n1 [AZD1775]; conditions: max 3 µM
Procedure, shortened: as §1

AZD5153 = compound: COc1nnc2ccc(N3CCC(c4ccc(OCCN5CCN(C)C(=O)[C@H]5C)cc4)CC3)nn12 [AZD5153]; conditions: max 1 µM
Procedure, shortened: as §1

SRA737 = compound: N#Cc1cnc(Nc2cc(NC[C@H]3CNCCO3)c(C(F)(F)F)cn2)cn1 [SRA737]; conditions: max 10 µM
Procedure, shortened: as §1

Selumetinib = compound: Cn1cnc2c(F)c(Nc3ccc(Br)cc3Cl)c(C(=O)NOCCO)cc21 [Selumetinib]; conditions: max 10 µM
Procedure, shortened: as §1

MK-2206 = compound: NC1(c2ccc(-c3nc4ccn5c(=O)[nH]nc5c4cc3-c3ccccc3)cc2)CCC1 [MK-2206]; conditions: max 10 µM
Procedure, shortened: as §1

Taselisib = compound: Cc1nc(-c2cn3c(n2)-c2ccc(-c4cnn(C(C)(C)C(N)=O)c4)cc2OCC3)n(C(C)C)n1 [Taselisib]; conditions: max 10 µM
Procedure, shortened: as §1

Lapatinib = compound: CS(=O)(=O)CCNCc1ccc(-c2ccc3ncnc(Nc4ccc(OCc5cccc(F)c5)c(Cl)c4)c3c2)o1 [Lapatinib]; conditions: max 10 µM
Procedure, shortened: as §1

Gefitinib = compound: COc1cc2ncnc(Nc3ccc(F)c(Cl)c3)c2cc1OCCCN1CCOCC1 [Gefitinib]; conditions: max 10 µM
Procedure, shortened: as §1

Savolitinib = compound: C[C@@H](c1ccc2nccn2c1)n1nnc2ncc(-c3cnn(C)c3)nc21 [Savolitinib]; conditions: max 1 µM
Procedure, shortened: as §1

Dasatinib = compound: CC1=C(C(=CC=C1)Cl)NC(=O)C2=CN=C(S2)NC3=CC(=NC(=N3)C)N4CCN(CC4)CCO [Dasatinib]; conditions: max 2 µM
Procedure, shortened: as §1

SG3199 = compound: CC1=CN2[C@@H](C1)C=NC3=CC(=C(C=C3C2=O)OC)OCCCCCOC4=C(C=C5C(=C4)N=C[C@@H]6CC(=CN6C5=O)C)OC [SG3199]; conditions: max 0.001 µM
Procedure, shortened: as §1

AZD5363 = compound: C1CN(CCC1(C(=O)N[C@@H](CCO)C2=CC=C(C=C2)Cl)N)C3=NC=NC4=C3C=CN4 [AZD5363]; conditions: max 10 µM
Procedure, shortened: as §1

AZD6738 = compound: C[C@@H]1COCCN1C2=NC(=NC(=C2)C3(CC3)[S@](=N)(=O)C)C4=C5C=CNC5=NC=C4 [AZD6738]; conditions: max 10 µM
Procedure, shortened: as §1

AZD4320 = compound: CN(CC[C@H](CSC1=CC=CC=C1)NC2=C(C=C(C=C2)S(=O)(=O)NC(=O)C3=CC=C(C=C3)N4CCC(CC4)[C@H](C5=CC=CC=C5C6=CC=C(C=C6)Cl)O)S(=O)(=O)C(F)(F)F)CCO [AZD4320]; conditions: max 1 µM
Procedure, shortened: as §1

[1] = compound: O=C(Nc1ccc2[nH]nc(-c3ccncc3)c2c1)[C@@H]1CCN(CC(=O)N2CCN(c3ccc(-c4ncccn4)cc3)CC2)C1; conditions: max 5 µM
Procedure, shortened: as §1

Etoposide = compound: COc1cc([C@@H]2c3cc4c(cc3[C@@H](O[C@@H]3O[C@@H]5CO[C@@H](C)O[C@H]5[C@H](O)[C@H]3O)[C@H]3COC(=O)[C@H]23)OCO4)cc(OC)c1O [Etoposide]; conditions: max 10 µM
Procedure, shortened: as §1

Venetoclax = compound: CC1(C)CCC(CN2CCN(c3ccc(C(=O)NS(=O)(=O)c4ccc(NCC5CCOCC5)c([N+](=O)[O-])c4)c(Oc4cnc5[nH]ccc5c4)c3)CC2)=C(c2ccc(Cl)cc2)C1 [Venetoclax]; conditions: max 1 µM
Procedure, shortened: as §1

AZD1390 = compound: CC(C)n1c(=O)n(C)c2cnc3cc(F)c(-c4ccc(OCCCN5CCCCC5)nc4)cc3c21 [AZD1390]; conditions: max 0.3 µM
Procedure, shortened: as §1

Gemcitabine = compound: Nc1ccn([C@@H]2O[C@H](CO)[C@@H](O)C2(F)F)c(=O)n1 [Gemcitabine]; conditions: max 0.3 µM
Procedure, shortened: as §1

AZD0156 = compound: CN(C)CCCOc1ccc(-c2ccc3ncc4c(c3c2)n(C2CCOCC2)c(=O)n4C)cn1 [AZD0156]; conditions: max 3 µM
Procedure, shortened: as §1

AZD5991 = compound: Cc1c2c(nn1C)CSCc1cc(n(C)n1)CSc1cc(c3ccccc3c1)OCCCc1c(C(=O)O)n(C)c3c-2c(Cl)ccc13 [AZD5991]; conditions: max 1 µM
Procedure, shortened: as §1

Paclitaxel = compound: CC(=O)O[C@H]1C(=O)[C@@]2(C)[C@H]([C@H](OC(=O)c3ccccc3)[C@]3(O)C[C@H](OC(=O)[C@H](O)[C@@H](NC(=O)c4ccccc4)c4ccccc4)C(C)=C1C3(C)C)[C@]1(OC(C)=O)CO[C@@H]1C[C@@H]2O [Paclitaxel]; conditions: max 3 µM
Procedure, shortened: as §1

AZD2811 = compound: CCN(CCO)CCCOc1ccc2c(Nc3cc(CC(=O)Nc4cccc(F)c4)[nH]n3)ncnc2c1 [AZD2811]; conditions: max 1 µM
Procedure, shortened: as §1

AZD7648 = compound: Cc1cc2ncnn2cc1Nc1ncc2c(n1)n(C1CCOCC1)c(=O)n2C [AZD7648]; conditions: max 10 µM
Procedure, shortened: as §1

5-Fluorouracil = compound: O=c1[nH]cc(F)c(=O)[nH]1 [5-Fluorouracil]; conditions: max 20 µM
Procedure, shortened: as §1

Palbociclib = compound: CC(=O)c1c(C)c2cnc(Nc3ccc(N4CCNCC4)cn3)nc2n(C2CCCC2)c1=O [Palbociclib]; conditions: max 10 µM
Procedure, shortened: as §1

Carboplatin = compound: C1CC(C1)(C(=O)[O-])C(=O)[O-].N.N.[Pt+2] [Carboplatin]; conditions: max 10 µM
Procedure, shortened: as §1

Cell Line	IC50, cell viability 72 h (Olaparib)	IC50, cell viability 72 h (Crizotinib)	IC50, cell viability 72 h (Prexasertib)	IC50, cell viability 72 h (Doxorubicin)	IC50, cell viability 72 h (Alisertib)	IC50, cell viability 72 h (SN-38)	IC50, cell viability 72 h (Trametinib)	IC50, cell viability 72 h (AZD8186)	IC50, cell viability 72 h (AZD1775)	IC50, cell viability 72 h (AZD5153)	IC50, cell viability 72 h (SRA737)	IC50, cell viability 72 h (Selumetinib)	IC50, cell viability 72 h (MK-2206)	IC50, cell viability 72 h (Taselisib)	IC50, cell viability 72 h (Lapatinib)	IC50, cell viability 72 h (Gefitinib)	IC50, cell viability 72 h (Savolitinib)	IC50, cell viability 72 h (Dasatinib)	IC50, cell viability 72 h (SG3199)	IC50, cell viability 72 h (AZD5363)	IC50, cell viability 72 h (AZD6738)	IC50, cell viability 72 h (AZD4320)	IC50, cell viability 72 h [1]	IC50, cell viability 72 h (Etoposide)	IC50, cell viability 72 h (Venetoclax)	IC50, cell viability 72 h (AZD1390)	IC50, cell viability 72 h (Gemcitabine)	IC50, cell viability 72 h (AZD0156)	IC50, cell viability 72 h (AZD5991)	IC50, cell viability 72 h (Paclitaxel)	IC50, cell viability 72 h (AZD2811)	IC50, cell viability 72 h (AZD7648)	IC50, cell viability 72 h (5-Fluorouracil)	IC50, cell viability 72 h (Palbociclib)	IC50, cell viability 72 h (Carboplatin)
ES8 (Ewing's Sarcoma)	3250 nM	1470 nM	41.7 nM	79.8 nM	16.2 nM	1.41 nM	> 1000 nM	> 10000 nM	522 nM	165 nM	> 10000 nM	> 10000 nM	5790 nM	800 nM	> 10000 nM	> 10000 nM	> 1000 nM	> 2000 nM	> 1 nM	8220 nM	3460 nM	> 1000 nM	> 5000 nM	358 nM	> 1000 nM	> 300 nM	5.64 nM	> 3000 nM	> 1000 nM	< 3 nM	5.8 nM	> 10000 nM	> 20000 nM	9500 nM	> 10000 nM
GR-ST (B-Lymphoblastic Leukemia)	> 10000 nM	2380 nM	16.8 nM	684 nM	> 10000 nM	6.71 nM	> 1000 nM	4950 nM	375 nM	41.2 nM	1750 nM	> 10000 nM	2260 nM	874 nM	5910 nM	> 10000 nM	> 1000 nM	> 2000 nM	> 1 nM	4130 nM	1740 nM	> 1000 nM	> 5000 nM	9020 nM	> 1000 nM	> 300 nM	19.8 nM	> 3000 nM	> 1000 nM	9.98 nM	> 1000 nM	> 10000 nM	> 20000 nM	3060 nM	> 10000 nM
K-562 (Chronic Myelogenous Leukemia)	> 10000 nM	2110 nM	19.5 nM	> 1000 nM	4680 nM	112 nM	> 1000 nM	> 10000 nM	624 nM	> 1000 nM	4120 nM	> 10000 nM	> 10000 nM	> 10000 nM	> 10000 nM	> 10000 nM	> 1000 nM	22.3 nM	> 1 nM	> 10000 nM	4140 nM	> 1000 nM	> 5000 nM	> 10000 nM	> 1000 nM	> 300 nM	> 300 nM	> 3000 nM	> 1000 nM	34.1 nM	> 1000 nM	> 10000 nM	> 20000 nM	> 10000 nM	> 10000 nM
L-540 (Hodgkin's Lymphoma)	> 10000 nM	6590 nM	8.45 nM	157 nM	3880 nM	2.77 nM	> 1000 nM	> 10000 nM	299 nM	104 nM	2460 nM	> 10000 nM	> 10000 nM	> 10000 nM	> 10000 nM	> 10000 nM	> 1000 nM	> 2000 nM	> 1 nM	> 10000 nM	761 nM	> 1000 nM	> 5000 nM	779 nM	> 1000 nM	> 300 nM	7.55 nM	> 3000 nM	99.8 nM	39.3 nM	> 1000 nM	> 10000 nM	835 nM	> 10000 nM	> 10000 nM
MKN28 (Gastric Carcinoma)	> 10000 nM	> 10000 nM	456 nM	> 1000 nM	> 10000 nM	> 300 nM	> 1000 nM	> 10000 nM	> 3000 nM	> 1000 nM	> 10000 nM	> 10000 nM	> 10000 nM	> 10000 nM	> 10000 nM	> 10000 nM	> 1000 nM	> 2000 nM	> 1 nM	> 10000 nM	> 10000 nM	> 1000 nM	> 5000 nM	> 10000 nM	> 1000 nM	> 300 nM	> 300 nM	> 3000 nM	> 1000 nM	1440 nM	> 1000 nM	> 10000 nM	> 20000 nM	> 10000 nM	> 10000 nM
